Laboratory results taken from patent publication US12428432B2, “Thienopyrimidine derivatives having stereo configurations and use thereof in medicine” (SUNSHINE LAKE PHARMA CO., LTD., priority 2019, dated 2025).
Where two headings read alike, the source gives them in different places.

Tests used:
[1] = Tissue distribution (liver/plasma) in mice after intragastric administration, LC-MS/MS; assay type: in vivo, C57BL/6 mice; settings: C57BL/6 male mice; for Kp at 0.5 h / Kp at 1 h / Kp at 2 h / concentration at 0.5 h / concentration at 1 h / concentration at 2 h: mouse, oral, 5 ml/kg; for Kp at 0.5 h / Kp at 1 h / Kp at 2 h: liver/plasma; for Kp at 0.5 h: read-out: Partition ratios of liver and plasma 0.5 h; for Kp at 1 h: read-out: Partition ratios of liver and plasma 1 h; for Kp at 2 h: read-out: Partition ratios of liver and plasma 2 h
Procedure: C57BL/6 mice were used as the test animals, the LC-MS/MS method was used to determine the drug concentration in plasma and liver at different times after the mice were administered intragastrically the compounds of Examples 1 to 3 and A13. Pharmacokinetic properties of the compounds of the present invention in mice were studied.
The prescriptions of A13, Example 1 and Example 2 were: 5% DMSO+5% Kolliphor HS15+90% Saline
The prescription of Example 3 was: 10% DMSO+10% Kolliphor HS15+80% Saline
Healthy adult C57BL/6 male mice, purchased from Hunan Slack Jingda Experimental Animal Co., Ltd., with an animal weight of 18-24 g, were administered intragastrically at a dosage of […] and a volume of 10 ml/kg.
Bloods were collected from the orbit at different time points, and the whole blood samples were placed in an anticoagulation tube containing EDTA-K2; the plasma was separated by centrifugation (centrifugation conditions: 12000 rpm, 2 min) and the upper plasma sample was collected and placed into a sample tube.
Animals were dissected and collected livers at different time points, a certain mass of liver tissue was weighed, 5 times the volume (m/V) of methanol solution was added to the homogenization tube, then homogenized at 60 hz for 2 minutes and centrifuged at 4° C. for 2 minutes, the supernatant was taken to obtain the liver homogenate.
LC-MS/MS was used to analyze the content of the test compounds in the plasma and liver of the mice after the compounds were administered intragastrically.

[2] = Liver microsome stability test; assay type: in vitro ADME; settings: mouse liver microsomes, Conc. 1 μM; for half-life at 1 μM: male, CD-1; for Remaining (%) (NCF = 60 min): no cofactor (buffer instead of NADPH); for Remaining (%) (T = 60 min): with NADPH
Procedure: Male CD-1 mouse liver microsomes, purchased from BD Gentest.
Preparation of stock solution: a certain amount of test compound of A13 and Example 1 were weighed to prepare a stock solution with a concentration of 10 mM with DMSO, and stored in a refrigerator at −20° C.
Preparation of NADPH solution: a certain amount of NADPH to be tested was weighed and prepared a solution with a concentration of 6 mM with 0.1 M potassium phosphate buffer (5 mg of NADPH was weighed and added to 1 mL of potassium phosphate buffer, the concentration was equivalent to 6 mM).
Preparation of compound dosing solution: 100 μM dosing solution: 5 μL of 10 mM stock solution was added to 495 μL of acetonitrile:water (1:1); 30 μM dosing solution: 60 μL of 100 μM dosing solution was added to 140 μL of 0.1 M potassium phosphate buffer; 1.5 μM dosing solution: 25 μL of 30 μM dosing solution and 18.8 μL (20 mg/mL) of liver microsomes were added to 456.2 μL of 0.1 M potassium phosphate buffer, one for each species.
μ30 μL of 1.5 μM dosing solution of the compound was added to a 96-well plate, 150 μL or 200 μL of acetonitrile internal standard was added immediately to the plate, then 15 μL of NADPH solution (6 mM) was added to the plate, the mixture was mixed well and placed in a 4° C. refrigerator as the initial 0 point sample, each drug was made two holes in parallel.
30 μL of 1.5 μM dosing solution was added to positions set at different time points in the 96-well plate, each drug was made two holes in parallel, and the pleat was preheated at 37° C. for 10 min.
After pre-incubation, 15 μL of NADPH solution (6 mM) was added to the well set at the time point of 60 min, at the time point of NCF60, 15 μL of potassium phosphate buffer salt solution was added at the same time to start the reaction and start timing. Then after 40 min, 15 μL of NADPH solution was added to the well set at 20 min. After 20 min, the incubation was over. 150 or 200 μL of acetonitrile internal standard was added to the positions set at all time points. The plate was centrifuged at 4000 rpm for 5 min, 50 μL supernatant was taken out and diluted with 150 μL water for sample analysis.
The initial 0 point was used as 100%, the relative content of the drug at each time point was calculated. GraphPad Prism5 software was used to plot the “relative content of the drug” versus “incubation time” to calculate the half-life of the drug and calculate the intrinsic clearance rate.

ACC1 = ACC1 (Homo sapiens (Human), UniProt Q13085); assay: In vitro inhibitory activity test of acetyl-CoA carboxylase (ADP-Glo Kinase Analysis), ACC1; assay type: biochemical
Procedure: (§1) The in vitro inhibitory effects of the compounds on ACC1 or ACC2 were tested by ADP-Glo™ Kinase Analysis Kit from Promega Company. The ADP-Glo™ Kinase Analysis was a luminescent ADP detection analysis, which was used to measure enzyme activity by quantifying the amount of ADP produced during the enzyme reaction. The analysis was performed with two steps: first, after the enzyme reaction, ADP-Glo™ reagent was added to stop the reaction and deplete the remaining ATP; then, a kinase detection reagent was added to simultaneously convert ADP to ATP and the newly synthesized ATP was measured using the luciferase/luciferin reaction. The luminescence can be correlated to the ADP concentration by using the ATP to ADP conversion curve.
(§2) The specific steps are as follows: • a. 4.5 μL/well of ACC1/ACC2 working solution (2.22 nM) was added to a 384-well reaction plate (PerkinElmer, 6007290); • b. The compound (10 mM stock solution) was diluted 500 times to 20 μM with 100% DMSO, and diluted in a ratio of 1:3 in a 384 dilution plate (3657, corning). The gradient concentrations of the compound were 20, 6.67, 2.22 0.74, 0.25, 0.082, 0.027, 0.009, 0.003, 0.001, 0 μM; • c. 0.5 μL/well of the compound solution (prepared in step b) was transferred to the 384-well reaction plate (prepared in step a), then plate was centrifuged at 1000 rpm and incubated at 25° C. for 15 minutes; • d. […] Relative luminescence unit (RLU) was read on an Envision multifunction plate reader. […]
(§3) The average values of each concentration and the data of the positive and negative controls were calculated, as well as the standard deviation. The percentage of inhibition was calculated by the formula: 100×(average negative control−compound)/(average negative control−average positive control). The IC50 for each compound was calculated by fitting the data with a nonlinear regression equation: Y=Bottom+(Top−Bottom)/(1+10^((Log IC50−X)×HillSlope)), wherein X is the log of compound concentration and Y is the percentage of inhibition.

ACC2 = ACC2 (Homo sapiens (Human), UniProt O00763); assay: In vitro inhibitory activity test of acetyl-CoA carboxylase (ADP-Glo Kinase Analysis), ACC2; assay type: biochemical
Procedure: as §1, §2, §3

[3] = liver, read-out: Average tissue concentrations (liver) 0.5 h
[4] = liver, 1 h, read-out: Average tissue concentrations (liver) 1 h
[5] = liver, read-out: Average tissue concentrations (liver) 2 h
[6] = plasma, read-out: Average concentration (plasma) 0.5 h
[7] = plasma, 1 h, read-out: Average concentration (plasma) 1 h
[8] = plasma, read-out: Average concentration (plasma) 2 h

ACC2, sequence (O00763 whole entry, species assumed): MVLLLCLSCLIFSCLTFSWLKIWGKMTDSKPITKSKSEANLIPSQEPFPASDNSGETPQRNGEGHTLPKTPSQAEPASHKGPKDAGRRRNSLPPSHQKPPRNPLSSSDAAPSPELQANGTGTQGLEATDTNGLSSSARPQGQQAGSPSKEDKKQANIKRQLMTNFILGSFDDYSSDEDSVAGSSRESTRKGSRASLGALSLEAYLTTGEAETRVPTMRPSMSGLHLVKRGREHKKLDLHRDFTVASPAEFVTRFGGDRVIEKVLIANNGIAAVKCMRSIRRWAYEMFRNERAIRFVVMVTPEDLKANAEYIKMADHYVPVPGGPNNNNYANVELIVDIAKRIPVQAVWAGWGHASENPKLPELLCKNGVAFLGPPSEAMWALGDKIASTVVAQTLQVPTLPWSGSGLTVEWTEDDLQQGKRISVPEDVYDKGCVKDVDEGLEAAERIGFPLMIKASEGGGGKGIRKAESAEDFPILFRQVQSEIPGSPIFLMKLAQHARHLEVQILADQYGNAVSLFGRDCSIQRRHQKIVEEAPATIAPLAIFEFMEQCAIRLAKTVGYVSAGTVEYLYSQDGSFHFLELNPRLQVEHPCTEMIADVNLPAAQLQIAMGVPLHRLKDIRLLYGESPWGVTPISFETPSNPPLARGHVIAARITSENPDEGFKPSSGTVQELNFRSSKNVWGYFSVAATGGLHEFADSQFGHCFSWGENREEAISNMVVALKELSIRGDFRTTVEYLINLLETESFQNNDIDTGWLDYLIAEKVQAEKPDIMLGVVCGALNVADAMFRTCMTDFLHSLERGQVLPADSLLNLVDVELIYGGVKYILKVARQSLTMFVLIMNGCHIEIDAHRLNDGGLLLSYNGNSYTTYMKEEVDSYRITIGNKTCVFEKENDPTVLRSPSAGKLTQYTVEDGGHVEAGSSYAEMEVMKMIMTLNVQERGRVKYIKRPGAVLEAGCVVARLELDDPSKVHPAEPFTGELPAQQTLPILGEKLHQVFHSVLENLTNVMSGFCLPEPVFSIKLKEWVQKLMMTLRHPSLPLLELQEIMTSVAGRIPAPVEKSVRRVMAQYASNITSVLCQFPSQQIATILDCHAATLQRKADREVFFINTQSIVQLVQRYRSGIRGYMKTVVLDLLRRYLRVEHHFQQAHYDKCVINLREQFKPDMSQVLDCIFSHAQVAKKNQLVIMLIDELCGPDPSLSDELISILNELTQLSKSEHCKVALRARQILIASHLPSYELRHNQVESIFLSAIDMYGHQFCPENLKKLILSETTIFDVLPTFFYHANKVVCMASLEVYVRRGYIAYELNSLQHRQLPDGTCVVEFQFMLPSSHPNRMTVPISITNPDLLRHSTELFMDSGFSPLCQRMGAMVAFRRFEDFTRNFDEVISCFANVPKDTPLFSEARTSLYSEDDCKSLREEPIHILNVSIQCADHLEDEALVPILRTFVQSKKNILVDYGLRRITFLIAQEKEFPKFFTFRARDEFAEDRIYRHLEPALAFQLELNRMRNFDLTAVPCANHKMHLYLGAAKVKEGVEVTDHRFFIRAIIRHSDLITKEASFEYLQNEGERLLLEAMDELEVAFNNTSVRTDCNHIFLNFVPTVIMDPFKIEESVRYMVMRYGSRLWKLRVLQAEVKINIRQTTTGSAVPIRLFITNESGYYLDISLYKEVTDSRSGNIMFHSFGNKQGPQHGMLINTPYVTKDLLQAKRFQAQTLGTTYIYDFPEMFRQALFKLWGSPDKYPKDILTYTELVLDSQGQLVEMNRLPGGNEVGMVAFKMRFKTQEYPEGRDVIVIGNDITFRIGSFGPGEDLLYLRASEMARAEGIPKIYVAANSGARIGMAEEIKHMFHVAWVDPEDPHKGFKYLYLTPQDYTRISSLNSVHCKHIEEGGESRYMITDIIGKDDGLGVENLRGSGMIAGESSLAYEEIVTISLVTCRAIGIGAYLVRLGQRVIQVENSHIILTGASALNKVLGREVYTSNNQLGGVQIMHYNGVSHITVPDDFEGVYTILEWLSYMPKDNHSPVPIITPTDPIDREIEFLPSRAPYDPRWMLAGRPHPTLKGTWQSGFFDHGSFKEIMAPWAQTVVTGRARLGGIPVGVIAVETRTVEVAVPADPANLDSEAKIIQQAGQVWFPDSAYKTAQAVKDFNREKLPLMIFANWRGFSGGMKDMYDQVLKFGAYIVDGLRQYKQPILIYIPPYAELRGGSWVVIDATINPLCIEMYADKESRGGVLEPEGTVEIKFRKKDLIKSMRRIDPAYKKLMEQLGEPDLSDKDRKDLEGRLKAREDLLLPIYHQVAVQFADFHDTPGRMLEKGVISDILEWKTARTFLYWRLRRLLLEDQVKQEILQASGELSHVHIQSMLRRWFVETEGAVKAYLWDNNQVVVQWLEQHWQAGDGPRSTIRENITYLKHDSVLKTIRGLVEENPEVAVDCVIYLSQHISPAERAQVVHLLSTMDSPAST

Row | SMILES | Kp at 0.5 h [1] | Kp at 1 h ([1]; 1 h) | Kp at 2 h [1] | concentration at 0.5 h [1, 3] [ng/g] | concentration at 1 h [1, 4] [ng/g] | concentration at 2 h [1, 5] [ng/g] | concentration at 0.5 h [1, 6] [ng/g] | concentration at 1 h [1, 7] [ng/g] | concentration at 2 h [1, 8] [ng/g] | half-life at 1 μM [2] [h] | ClHep [2] [mL/min/kg] | Clin vivo [2] [mL/min/kg] | ER [2] | Remaining (%) (NCF = 60 min) [2] | Remaining (%) (T = 60 min) [2] | IC50 (ACC1) [nM] | IC50 (ACC2) [nM] | Partition ratios of liver and plasma 0.5 h [1] | Partition ratios of liver and plasma 2 h [1] | Average tissue concentrations (liver) 0.5 h ([1]; liver) [ng/g] | further results
1 | COc1ccccc1C(Cn1c(=O)n(C(C)(C)C(=O)O)c(=O)c2c(C)c(-c3ncco3)sc21)OC1CC2COCC2C1 (racemic) [Example A13, reference compound] | 86 | 130 | 170 | 61500 | 33300 | 14000 | 717 | 249 | 82.8 | 1.49 | 60.9 | 36.3 | 0.4 | 81.0 | 63.4 |  |  |  |  |  | 
2 | COc1ccccc1[C@H](Cn1c(=O)n(C(C)(C)C(=O)O)c(=O)c2c(C)c(-c3ncco3)sc21)OC1C[C@H]2COC[C@@H]2C1 [Example 1, 2-[1-[(2R)-2-[[(3aR,6aR)-3,3a,4,5,6,6a-hexahydro-1H-cyclopenta[c]furan-5-yl]oxy]-2-(2-methoxyphenyl)ethyl]-5-methyl-6-oxazol-2-yl-2,4-dioxo-thieno[2,3-d]pyrimidin-3-yl]-2-methyl-propionic acid] |  |  |  |  |  |  |  |  |  | 2.42 | 38.0 | 9.6 | 0.1 | 90.6 | 71.9 | 1.42 | 3.65 | 190 | 600 | 75000 | Partition ratios of liver and plasma 1 h ([1]; 1 h): 140; Average tissue concentrations (liver) 1 h ([1]; liver, 1 h): 48300 ng/g; Average tissue concentrations (liver) 2 h ([1]; liver): 35500 ng/g; Average concentration (plasma) 0.5 h ([1]; plasma): 391 ng/g; Average concentration (plasma) 1 h ([1]; plasma, 1 h): 336 ng/g; Average concentration (plasma) 2 h ([1]; plasma): 59.1 ng/g
3 | COc1ccccc1[C@H](Cn1c(=O)n(C(C)(C)C(=O)O)c(=O)c2c(C)c(-c3ncco3)sc21)OC1C[C@@H]2COC[C@H]2C1 [Example 2, 2-[1-[(2R)-2-[[(3aS,6aS)-3,3a,4,5,6,6a-hexahydro-1H-cyclopenta[c]furan-5-yl]oxy]-2-(2-methoxyphenyl)ethyl]-5-methyl-6-oxazol-2-yl-2,4-dioxo-thieno[2,3-d]pyrimidin-3-yl]-2-methyl-propionic acid] | 190 | 120 | 180 | 70400 | 40600 | 16900 | 373 | 351 | 96.4 |  |  |  |  |  |  | 1.09 | 3.82 |  |  |  | 
4 | COc1ccccc1[C@H](Cn1c(=O)n(C(C)(C)C(=O)O)c(=O)c2c(C)c(-c3ncco3)sc21)O[C@H]1C[C@H]2COC[C@H]2C1 [Example 3, 2-[1-[(2R)-2-[[(3aR,6aS)-3,3a,4,5,6,6a-hexahydro-1H-cyclopenta[c]furan-5-yl]oxy]-2-(2-methoxyphenyl)ethyl]-5-methyl-6-oxazol-2-yl-2,4-dioxo-thieno[2,3-d]pyrimidin-3-yl]-2-methyl-propionic acid] |  |  |  |  |  |  |  |  |  |  |  |  |  |  |  | 0.23 | 2.43 | 122 | 104 | 75500 | Average tissue concentrations (liver) 2 h ([1]; liver): 26500 ng/g; Average concentration (plasma) 0.5 h ([1]; plasma): 669 ng/g; Average concentration (plasma) 2 h ([1]; plasma): 253 ng/g
